# Laboratory results reported in US20240350489A1, “LOU064 FOR TREATING MULTIPLE SCLEROSIS” (NOVARTIS AG, priority 2021, published 2024).
# Entries after “also recorded” stand apart in the source; their conditions may differ. Like-named read-outs stand apart in the source and are kept apart here.
# How the values were obtained:
# [1] = Levels of LOU064 in mouse tissues (blood, brain, CSF); assay type: in vivo; details: for concentration at 1 h / concentration at 5 h / concentration at 8 h: C57BL/6, mouse, oral
# Experimental: The compound levels in total brain homogenate are very low and mainly detectable at the early timepoint. Similarly, the levels in cerebrospinal fluid (CSF) are low.
# Blood, brain and CSF levels of LOU064 after oral dosing of 3 and 30 mg/kg b.i.d. The LLOQ were 0.2 nM in blood, […] in brain homogenate and 0.5 nM in CSF. Shown are averages ±SD from 4 animals for the 1 h timepoints and from 3 animals for the 5 and 8 h timepoints. Where denoted with ^a, the values were derived from one animal of three that was above the LLOQ.
# BTK [2] = biological target: T1, BTK (Mus musculus, UniProt P35991); assay: BTK occupancy in spleen, lymph nodes and brain homogenate, HumanMOG EAE; assay type: in vivo
# T1 construct: from tissue; host or cells: spleen, inguinal lymph nodes, blood and brain homogenate of C57BL/6 EAE mice
# Experimental: BTK occupancy in spleen was determined at 1, 5 and 8 hours after b.i.d. oral dosing of LOU064 (FIG. 4).
# BTK occupancy was assessed in brain homogenates that had been prepared for compound exposure analysis (FIG. 6). […] Variability in brain BTK occupancy might be due to the fact that the analysis was performed on the remainder of the homogenates prepared for compound level assessment.
# [3] = tested on: MOG-specific immunoglobulin responses; assay: MOG-specific immunoglobulin responses in serum, HumanMOG EAE; assay type: in vivo, mouse; details: oral b.i.d. treatment
# Text: In the HumanMOG-induced EAE model the (auto)antibody response is weakly pathogenic.
# [4] = tested on: splenocytes and draining lymph node cells; assay: Ex vivo MOG-induced recall proliferation, HumanMOG EAE; parameters: species or system mouse; details: dosed in vivo
# Experimental: Prophylactic LOU064 (b.i.d.) treatment during HumanMOG EAE inhibits (auto)antigen recall proliferation. Isolated splenocytes and draining lymph node cells were incubated in vitro with HumanMOG for 48 hours. Antigen-specific proliferation was determined by [^3H]-thymidine incorporation. […] Group sizes n=5 per treatment.
# Ex vivo MOG-induced recall proliferation responses were studied using isolated splenocytes and draining lymph node cells collected on day 8 post-immunization. […] In contrast, plate-bound anti-CD3/CD28 polyclonal stimulation of lymph node cells was unaffected by the in vivo treatment.
# [5] = tested on: B-cell and CD4+ T-cell populations; assay: Ex vivo analysis of B-cell and CD4+ T-cell populations, HumanMOG EAE; parameters: species or system mouse; details: dosed in vivo b.i.d.
# Text: Prophylactic LOU064 (b.i.d.) treatment during HumanMOG EAE reduces Th17 cells. […] Group sizes n=5 per treatment. Statistical significance (ANOVA with Dunnett's test) is shown as *p<0.05.
# RatMOG-induced EAE [6] = assay: RatMOG-induced EAE, short eight-day (pre-disease) protocol; parameters: species or system mouse; details: dosed in vivo 8 days; LOU064 1, 3 and 10 mg/kg
# Experimental: Isolated draining lymph node cells were incubated in vitro with RatMOG for 48 hours. Antigen-specific proliferation was determined by [^3H]-thymidine incorporation. Animals dosed in vivo with BTK inhibitors (LOU064, ibrutinib or Cyclosporin A (CsA) for 8 days. Group sizes n=4-5 per treatment.
# To elucidate further whether BTK inhibitor efficacy was directly linked to reduction in B-cell antigen-presenting function compounds were tested in recombinant RatMOG-induced EAE model. This EAE model shares many of the characteristics of recombinant HumanMOG-induced EAE with MOG-specific T-cells infiltrating the CNS and resulting in neurological paralysis. However, RatMOG-induced EAE is B-cell independent and the dendritic cells are the dominant antigen-presenting cells type. Therefore, BTK inhibitors would be predicted to have no significant efficacy in RatMOG-induced EAE unless drug treatment was associated with a broader, non-specific, immune suppression. In addition to LOU064, which was used at 1 mg/kg, 3 mg/kg and 10 mg/kg, the reference compound ibrutinib was tested.
# Cyclosporin A (CsA) acted as a positive control for direct T-cell immunosuppression. […] Ex vivo MOG-induced recall proliferation responses were studied using isolated splenocytes collected on day 8 post-immunization. In vivo BTK inhibitor treatment had no effect on recall responses (FIG. 12).
# RatMOG-induced EAE [7] = assay: RatMOG-induced EAE, b.i.d. dosing until study end; assay type: in vivo
# Experimental: Dosing of LOU064 was initiated 4 hours prior to MOG/CFA immunization and continued twice daily until study end.
# BTK [8] = biological target: T1, BTK; assay: Trough BTK occupancy in spleen, blood and brain, RatMOG EAE; assay type: in vivo; details: 30 mg/kg b.i.d., 16 h after the last dose
# [9] = Co-administration with oral contraceptives; assay type: in vivo; details: co-administered ethinylestradiol or levonorgestrel
# [10] = 52-week open label extension study in CSU subjects, safety; details: for safety signals / safety profile: 100 mg b.i.d. open-label, interim analyses
# Experimental: In a 52-week open label extension study to evaluate the long-term safety and tolerability of LOU064 in eligible subjects with CSU who participated in the Phase 2b study the dose used was 100 mg b.i.d.
# [11] = 3 mg/kg b.i.d., 1, 5 and 8 hours after dosing
# [12] = 30 mg/kg b.i.d., 1, 5 and 8 hours after dosing
# [13] = 100 mg B.I.D., N = 100, interim cut off 31 Aug. 2020
# [14] = ES, 100 mg b.i.d., N = 183, listed as remibrutinib
# T1 sequence (P35991 whole entry): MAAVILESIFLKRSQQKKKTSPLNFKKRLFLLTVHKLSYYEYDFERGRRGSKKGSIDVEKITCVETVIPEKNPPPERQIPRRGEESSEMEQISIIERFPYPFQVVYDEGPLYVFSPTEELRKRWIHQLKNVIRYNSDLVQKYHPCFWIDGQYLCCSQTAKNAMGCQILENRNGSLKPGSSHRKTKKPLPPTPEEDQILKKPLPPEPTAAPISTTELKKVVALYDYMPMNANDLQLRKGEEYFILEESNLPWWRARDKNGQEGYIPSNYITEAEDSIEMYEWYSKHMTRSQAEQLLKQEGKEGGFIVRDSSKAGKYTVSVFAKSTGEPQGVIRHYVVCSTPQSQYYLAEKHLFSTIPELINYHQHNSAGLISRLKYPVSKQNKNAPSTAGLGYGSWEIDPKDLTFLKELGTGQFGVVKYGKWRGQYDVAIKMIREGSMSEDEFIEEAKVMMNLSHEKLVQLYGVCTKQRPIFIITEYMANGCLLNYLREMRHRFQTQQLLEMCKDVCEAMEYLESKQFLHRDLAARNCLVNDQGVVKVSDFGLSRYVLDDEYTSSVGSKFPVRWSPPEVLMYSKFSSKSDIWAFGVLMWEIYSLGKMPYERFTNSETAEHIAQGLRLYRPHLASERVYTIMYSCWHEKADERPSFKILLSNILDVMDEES
compound,measurement,setting,value
"C=CC(=O)N(C)CCOc1c(N)ncnc1-c1cc(F)cc(NC(=O)c2ccc(C3CC3)cc2F)c1C [LOU064, N-(3-(6-amino-5-(2-(N-methylacrylamido)ethoxy)pyrimidin-4-yl)-5-fluoro-2-methylphenyl)-4-cyclopropyl-2-fluorobenzamide]","Levels of LOU064, Brain","[1]; 3 mg/kg p.o. b.i.d., 1 h",2.3 ± 2.2 pmol/g
same,"Levels of LOU064, Brain","[1]; 3 mg/kg p.o. b.i.d., 5 h",<0.5 pmol/g
same,"Levels of LOU064, Brain","[1]; 3 mg/kg p.o. b.i.d., 8 h",<0.5 pmol/g
same,"Levels of LOU064, Brain","[1]; 30 mg/kg p.o. b.i.d., 1 h",13.5 ± 6.0 pmol/g
same,"Levels of LOU064, CSF","[1]; 30 mg/kg p.o. b.i.d., 1 h",8.4 ± 3.1 nM
same,"Levels of LOU064, Brain","[1]; 30 mg/kg p.o. b.i.d., 5 h",0.7 ± 0.02 pmol/g
same,"Levels of LOU064, Brain","[1]; 30 mg/kg p.o. b.i.d., 8 h",<0.5 pmol/g
same,concentration at 1 h,"[1]; CSF, 3 mg/kg p.o. b.i.d., 1 h, read-out: Levels of LOU064, CSF",3 ± 3.3 nM
same,concentration at 5 h,"[1]; CSF, 3 mg/kg p.o. b.i.d., 5 h, one animal of three above LLOQ, read-out: Levels of LOU064, CSF",0.5 nM
same,concentration at 8 h,"[1]; CSF, 3 mg/kg p.o. b.i.d., 8 h, read-out: Levels of LOU064, CSF",< 0.5 nM
same,concentration at 5 h,"[1]; CSF, 30 mg/kg p.o. b.i.d., 5 h, one animal of three above LLOQ, read-out: Levels of LOU064, CSF",0.5 nM
same,concentration at 8 h,"[1]; CSF, 30 mg/kg p.o. b.i.d., 8 h, read-out: Levels of LOU064, CSF",< 0.5 nM
same,concentration at 1 h,"[1]; whole blood, 3 mg/kg p.o. b.i.d., 1 h, read-out: Levels of LOU064, Blood",28.2 ± 11.7 nM
same,concentration at 5 h,"[1]; whole blood, 3 mg/kg p.o. b.i.d., 5 h, read-out: Levels of LOU064, Blood",0.4 ± 0.04 nM
same,concentration at 8 h,"[1]; whole blood, 3 mg/kg p.o. b.i.d., 8 h, read-out: Levels of LOU064, Blood",0.2 ± 0.07 nM
same,concentration at 1 h,"[1]; whole blood, 30 mg/kg p.o. b.i.d., 1 h, read-out: Levels of LOU064, Blood",371 ± 149 nM
same,concentration at 5 h,"[1]; whole blood, 30 mg/kg p.o. b.i.d., 5 h, read-out: Levels of LOU064, Blood",19.4 ± 9.9 nM
same,concentration at 8 h,"[1]; whole blood, 30 mg/kg p.o. b.i.d., 8 h, read-out: Levels of LOU064, Blood",3.4 ± 2.3 nM
same,BTK occupancy in lymph nodes,BTK [2]; [11],maximal for both doses and showed a decay after a 3 mg/kg dose; also recorded: complete BTK occupancy
same,BTK occupancy in spleen,BTK [2]; [11],maximal for both doses and showed a decay after a 3 mg/kg dose; also recorded: complete BTK occupancy
same,BTK occupancy in brain homogenate,"BTK [2]; 3 mg/kg b.i.d., 1 hour timepoint",only minimal BTK occupancy
same,BTK occupancy in brain homogenate,BTK [2]; 30 mg/kg b.i.d.,maximal BTK occupancy with a decline over the dosing interval
same,BTK occupancy in lymph nodes,BTK [2]; [12],a more sustained occupancy after the 30 mg/kg dose
same,BTK occupancy in spleen,BTK [2]; [12],a more sustained occupancy after the 30 mg/kg dose
same,MOG-specific IgG2c,[3],No change was detected
same,MOG-specific IgM and IgG responses in serum,[3],significantly reduced
same,MOG-specific proliferation ([3H]-thymidine incorporation),[4]; cells incubated with HumanMOG 48 hours,dose-dependent reduction in MOG-specific proliferation
same,polyclonal stimulation with anti-CD3/CD28,[4]; lymph node cells,unchanged
same,Th1 and Tregs,[5],unchanged; also recorded: No changes were observed
same,Th17 (IL-17+) cells,[5],reduced; also recorded: significant reduction
same,frequencies of B-cell populations,[5],no significant changes in total B-cell populations
same,total CD4+ T-cell population,[5],unchanged
same,RatMOG (auto)antigen recall proliferation,RatMOG-induced EAE [6],failed to inhibit (auto)antigen recall proliferation
same,tolerability,RatMOG-induced EAE [7]; 30 mg/kg b.i.d.,well tolerated in all mice
same,cumulative disease burden,"RatMOG-induced EAE [7]; 30 mg/kg b.i.d., p value=0.013",significantly reduced
same,disease incidence and time of EAE onset,"RatMOG-induced EAE [7]; 30 mg/kg b.i.d., p value=0.018",reduction in the incidence of EAE and a delayed onset; also recorded: significantly reduced disease incidence
same,clinical symptoms of EAE / EAE scores,RatMOG-induced EAE [7]; 30 mg/kg p.o. b.i.d.,inhibited inflammation-induced clinical symptoms of EAE and cachexia; also recorded: efficacious at reducing the severity of RatMOG-induced EAE; also recorded: improvement in EAE scores
same,daily body weight changes (cachexia),RatMOG-induced EAE [7]; 30 mg/kg p.o. b.i.d.,significantly reduced
same,BTK occupancy in brain,BTK [8],intermediate levels; also recorded: only partial BTK occupancy in the brain
same,BTK occupancy in spleen and blood,BTK [8],in a range indicative of maximal BTK occupancy; also recorded: full BTK occupancy in blood and spleen
same,impact on exposure and efficacy of oral contraceptives,[9],without a major impact on their exposure and efficacy
same,Death,[10]; [13],0 n
same,Discontinued study due to an SAE(s),[10]; [13],0 n
same,safety signals / safety profile,[10],No safety signal has been observed; also recorded: no safety signals have been observed; also recorded: well tolerated and with a favorable safety profile
same,safety signals / safety profile,[10]; listed as Remibrutinib,no new safety signals
same,dose-limiting liver enzyme elevations and other off-target-effects,[10]; 100 mg b.i.d. over an extended period of time,does not induce any dose-limiting liver enzyme elevations and other off-target-effects
same,AE Headache (PT),"[10]; 100 mg b.i.d., N = 100 interim",6%
same,AE Infections and infestations (SOC),"[10]; 100 mg b.i.d., N = 100 interim",14%
same,AE Skin and subcutaneous tissue disorders (SOC),"[10]; 100 mg b.i.d., N = 100 interim",13%
same,AE diarrhea (PT),"[10]; 100 mg b.i.d., N = 100 interim",4%
same,AE dizziness (PT),"[10]; 100 mg b.i.d., N = 100 interim",3%
same,AE gastroenteritis (PT),"[10]; 100 mg b.i.d., N = 100 interim",3%
same,bleeding events or events under SOC Blood and lymphatic system disorders,"[10]; 100 mg b.i.d., N = 100 interim",no bleeding events
same,ECG findings or QT of >500 ms,"[10]; ES and CS, any patient",no significant ECG findings or QT of >500 ms noted in any patient
same,AE Headache (PT),[10]; [14],6.6%
same,AE Infections and infestations (SOC),[10]; [14],23.0%
same,AE Skin and subcutaneous tissue disorders (SOC),[10]; [14],17.5%
same,Discontinued study treatment due to AE(s),[10]; [14],6 n
same,Patients with SAE(s),[10]; [14],4 n
same,AE Skin and subcutaneous tissue disorders (SOC),"[10]; ES, 100 mg b.i.d., N=183",32 n
same,Incidence of AESI bleeding,"[10]; ES, 100 mg b.i.d., N=183",4.4%
same,Incidence of AESI cytopenias,"[10]; ES, 100 mg b.i.d., N=183",0.5%
same,Incidence of AESI infections,"[10]; ES, 100 mg b.i.d., N=183",23%
same,deaths,"[10]; ES, 100 mg b.i.d., N=183",no deaths
same,patients with isolated ALT>3xULN,"[10]; ES, N=183, normalized within 4 weeks",1 patient
